Experimental data as given in publication PMC6365506, “Plasmodium falciparum specific helicase 2 is a dual, bipolar helicase and is crucial for parasite growth” (Scientific Reports, 2019).

Key:
PfPSH2 [1] = molecular target: T1, PfPSH2 (Plasmodium falciparum, UniProt A0A1Q1G9G0); assay: radiolabelled Pi release, TLC; type: biochemical; settings: M13mp19 ssDNA or total RNA as stimulator; 1.0 mM MgCl2, pH 8.0, 37 °C; labelled compound ([γ-32P]ATP with 1 mM cold ATP)
T1 construct: gene PSH2; full length, 880 residues, ~105 kDa, His-tagged (pET28a+), expressed in E. coli BL21 codon Plus, Ni-NTA purified
T1 sequence (A0A1Q1G9G0 1-880): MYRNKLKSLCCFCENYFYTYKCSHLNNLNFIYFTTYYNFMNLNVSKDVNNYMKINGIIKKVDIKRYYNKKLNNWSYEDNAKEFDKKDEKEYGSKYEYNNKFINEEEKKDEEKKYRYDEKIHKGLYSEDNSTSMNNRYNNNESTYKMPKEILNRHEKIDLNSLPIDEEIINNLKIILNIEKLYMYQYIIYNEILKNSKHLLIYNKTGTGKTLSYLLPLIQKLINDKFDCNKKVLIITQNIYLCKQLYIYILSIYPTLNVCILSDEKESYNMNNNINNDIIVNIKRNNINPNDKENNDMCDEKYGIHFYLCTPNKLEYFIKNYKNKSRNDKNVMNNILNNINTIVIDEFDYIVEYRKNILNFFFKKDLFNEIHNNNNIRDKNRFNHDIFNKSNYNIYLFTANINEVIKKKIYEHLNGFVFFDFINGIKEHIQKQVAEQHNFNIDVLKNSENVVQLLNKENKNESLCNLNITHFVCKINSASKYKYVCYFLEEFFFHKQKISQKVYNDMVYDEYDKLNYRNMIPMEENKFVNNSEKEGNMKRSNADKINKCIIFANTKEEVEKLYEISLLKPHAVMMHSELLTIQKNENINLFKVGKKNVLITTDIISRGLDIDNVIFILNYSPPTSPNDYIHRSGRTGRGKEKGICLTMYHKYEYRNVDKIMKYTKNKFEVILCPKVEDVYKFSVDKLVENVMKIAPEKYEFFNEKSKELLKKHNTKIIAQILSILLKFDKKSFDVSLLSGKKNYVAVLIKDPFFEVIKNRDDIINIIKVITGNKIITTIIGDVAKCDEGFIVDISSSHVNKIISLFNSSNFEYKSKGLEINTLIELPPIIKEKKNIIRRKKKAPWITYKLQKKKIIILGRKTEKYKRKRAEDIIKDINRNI

PfPSH2 [2] = molecular target: T1, PfPSH2; assay: DNA helicase unwinding assay, gel autoradiography; type: biochemical; settings: 32P-labelled partial duplex DNA; dATP in place of ATP; 1.0 mM MgCl2, pH 8.0, 37 °C; 80 nM protein

Structure (SMILES) | radiolabelled Pi release, TLC (PfPSH2 [1]) | DNA helicase unwinding assay, gel autoradiography (PfPSH2 [2])
Nc1ncnc2c1ncn2[C@@H]1O[C@H](COP(=O)(O)OP(=O)(O)OP(=O)(O)O)[C@@H](O)[C@H]1O [ATP] | PfPSH2 shows concentration-dependent ATPase activity in the presence of DNA | –
Nc1ncnc2c1ncn2[C@H]1C[C@H](O)[C@@H](COP(=O)(O)OP(=O)(O)OP(=O)(O)O)O1 [dATP] | – | PfPSH2 prefers ATP and dATP for unwinding the duplex substrate
